How the values were obtained:
[1] = tested on: VEGFA gene; experiment: qRT-PCR of hypoxia-induced VEGFA transcription in A549 cells; type: cell-based; conditions: hypoxia (GasPak EZ Anaerobe Pouch), real-time qRT-PCR
Protocol: (§1) Hypoxia was mimicked by O2 deprivation in a GasPak™ EZ Anaerobe Pouch System (BD). […] Error bars are ±s.e.m. of four independent experiments. *** P<0.001, t-test.
(§2) A549 cells, a non-small cell lung adenocarcinoma cell line, were used. It has been reported that A549 cell line produces robust upregulation of key HIF-inducible genes under hypoxia conditions. […] A549 cells were maintained in 2% serum followed by treating cells with compound or control in the media with 0.2% serum for 48 h.
(§3) mRNA levels of three HIF-1α inducible genes: VEGF, c-Met and […] in A549 cells after treatment with OOPS were measured. Data from qRT-PCR experiments showing mRNA levels of three HIF-1α inducible genes, VEGF, c-Met and LOX in A549 after treatment of the cells in a medium with OOPS is described in FIGS. 1-3. Hypoxia was mimicked by O2 deprivation in a GasPak™ EZ Anaerobe Pouch System (BD). Error bars are ±s.e.m for the experiments performed in quadruplicate. Error bars are ±s.e.m. of experiments performed in triplicate. *** P<0.001, ** P<0.01, t test.

[2] = tested on: c-Met gene; experiment: qRT-PCR of hypoxia-induced c-Met transcription in A549 cells; type: cell-based; conditions: hypoxia (GasPak EZ Anaerobe Pouch), real-time qRT-PCR
Protocol: as §1, §2, §3

[3] = tested on: LOX gene; experiment: qRT-PCR of hypoxia-induced LOX transcription in A549 cells; type: cell-based; conditions: hypoxia (GasPak EZ Anaerobe Pouch), real-time qRT-PCR
Protocol: as §1, §2, §3

[4] = tested on: HIF1α-inducible promoter activity; experiment: luciferase-based hypoxia-inducible promoter activity assay, MDA-MB-231-HRE-Luc cell line; conditions: MDA-MB-231-HRE-Luc cells, various concentrations
Protocol: Results from the luciferase-based promoter activity assay with MDA-MB-231-HRE-Luc cell line treated with OOP 1 at various concentration. Hypoxia was mimicked by O2 deprivation in a GasPak™ EZ Anaerobe Pouch System (BD). Error bars represent ±s.e.m. of experiments performed in triplicates. * P<0.05, ** P<0.01, t-test, relative to sample Vehicle Hypoxia.
An analysis of hypoxia-inducible promoter activity was performed using luciferase assays in a MDA-MB-231 cell line stably transfected with hRE-hCMV-Luc plasmid. Cell lines were treated with OOP compounds at various concentrations. Hypoxia was mimicked by O2 deprivation in a GasPak™ EZ Anaerobe Pouch System (BD). Error bars represent ±s.e.m. of experiments performed in triplicates.

[5] = tested on: HIF-1α; experiment: Western blot of intracellular HIF-1α levels in A549 cells; type: cell-based; conditions: A549 whole cell extract, 24 h incubation, hypoxia for last 18 h
Protocol: Western blot analysis of HIF-1α levels (A) with β-actin used as a control (B) in the whole cell extract of A549 cells. Cells were incubated for a total of 24 hours with OOP 2. After 6 h, hypoxia was mimicked by O2 deprivation in a GasPak™ EZ Anaerobe Pouch System (BD) for an additional 18 h.
(§4) The effect of OOPS on HIF-1α and c-met protein levels was studied. A549 cells were treated with OOPS. Cells were incubated for a total of 24 hours with OOP 2. After 6 h, hypoxia was mimicked by O2 deprivation in a GasPak™ EZ Anaerobe Pouch System (BD) for an additional 18 hours.

[6] = tested on: c-Met; experiment: Western blot of intracellular c-Met levels in A549 cells; type: cell-based; conditions: A549 whole cell extract, 24 h incubation, hypoxia for last 18 h
Protocol: Western blot analysis of c-Met levels (A) with β-actin used as a control (B) in the whole cell extract of A549 cells. Cells were incubated for a total of 24 hours with OOP 2. After 6 h, hypoxia was mimicked by O2 deprivation in a GasPak™ EZ Anaerobe Pouch System (BD) for an additional 18 h.
as §4

[7] = MTT cytotoxicity assay in MCF7 cells; type: cell-based; conditions: human, MCF7 breast cancer cells, 1 μM to 60 μM
Protocol: One potential issue that arises with the use of transcriptional inhibitors is their cytotoxicity. Therefore, careful assessment of the cytotoxicity is important to evaluate nonspecific, global effects on transcriptional machinery. Cytotoxicity experiments were performed in order to obtain the EC50 values of OOPS in an MCF7 breast cancer cell line.
The cells were treated with different concentrations of compound for 48 hours in serum free F-12K medium. The cells are plated into 96-well dishes (Greiner) at a density of 5,000-10,000 cells/well in 200 μl of the cell culture media prepared as recommended by the vendor (ATCC). The plates are then placed into the incubator (37° C., 5% CO2) until the desired confluence is reached (in ca. 24-72 hours). Next, the media in all wells is replaced with the solution of the OOPS compound (150 μl for 48 hour study, 200 μl for 72 hour study) in the appropriate cell culture medium. The plates are then incubated for 48 hours (37° C., 5% CO2). […] The resulting purple precipitate is then dissolved in DMSO (200 μl/well) and the absorption of the metabolite product (purple formazan) in each well is measured at 562 nm using microplate reader (BioTek Synergy II). The absorption values are plotted against the concentration of the compound and GI50 is determined.

[8] = tested on: MCF7 cells; experiment: gene expression profiling with Affymetrix Human Gene ST 1.0 Arrays; type: cell-based; conditions: 10 μM, hypoxia (GasPak EZ pouch), |fold-change|>2.0, P<0.005, set of 3328 transcripts
Protocol: (A) Agglomerative hierarchical clustering of expression changes of the 3328 transcripts induced or repressed 2-fold or more (one-way ANOVA, P<0.005) under hypoxia mimicked with GasPak EZ pouch and the four specified conditions: -, no treatment; 1, OOP 1 (10 iuM); 2, OOP 2 (10 μM), 4, OOP 4 (10 μM). Clustering was based on a Pearson centered correlation of intensity ratios for each treatment compared to hypoxic cells (controls) using average-linkage as a distance. Of this hypoxia-induced set, 148 were induced and 449 were inhibited by OOP 1, whereas 217 were induced and 371 inhibited by OOP 2 (|fold-change|>2.0, P<0.005). Treatment with control OOP 4 induced 91 and inhibited 82 transcripts (|fold-change|>2.0, P<0.005). (B) Clustering of expression changes of the 571 transcripts induced or repressed 4-fold or more (P<0.005) by hypoxia mimicked with GasPak EZ pouch under the designated treatment conditions. Clustering parameters were the same as in (A). All reported treatments are error-weighted averages from three experiments. […] Numbers inside the intersections represent hypoxia-induced transcripts affected by the treatments.
Target proteins p300 and CBP are pleiotropic multidomain coactivators, and their CH1 regions contain binding sites for multiple transcription factors. To determine nonspecific genome-wide effects of OOPS, in vitro gene expression profiling experiments were conducted with OOPS using Affymetrix Human Gene ST 1.0 Arrays containing oligonucleotide sequences representing 28,869 transcripts. In order to interrogate cellular genome for global effects, MCF7 cells were treated with OOPS.

[9] = maximum tolerated dose (MTD) study; type: in vivo; conditions: Balb/C mice, intraperitoneal injection every 48 hours, up to 100 mg/kg
Protocol: Balb/C mice were used in an MTD experiment. 1 mouse was present in the vehicle group and 3 mice in OOP 2-treated group. Food and water ad libitum was provided as needed and according to the protocol. OOP 2 was administered by Intraperitoneal (IP) injection. OOP 2 was dissolved in sterile PBS at a concentration range between […]. Volume administered was about 100-150 μl every 48 hours. No toxicity was seen even at 100 mg/kg of OOP 2, at which point the experiment was terminated.

Structure (SMILES)	expression levels of VEGFA gene (mRNA) [1]	expression levels of c-Met gene (mRNA) [2]	expression levels of LOX gene (mRNA) [3]	HIF1α-inducible promoter activity (luciferase) [4]	intracellular levels of HIF-1α (Western blot) [5]	intracellular levels of c-Met (Western blot) [6]	EC50 at 48 h [7] [µM]	number of transcripts induced, of the hypoxia-induced set [8]	number of transcripts inhibited, of the hypoxia-induced set [8]	toxicity in MTD study [9]
CC(C)C[C@@H]1NCCN([C@@H](CC(C)C)C(=O)N2CCN([C@@H](CCC(N)=O)C(N)=O)C(=O)[C@@H]2C)C1=O [OOP 2]	reduced expression levels of VEGFA gene	reduced expression levels of c-Met gene	reduced expression levels of LOX gene	reduces HIF1α-inducible promoter activity in vitro in a dose-dependent manner	does not decrease the intracellular levels of HIF-1α	decreases intracellular levels of c-Met	30	217	371	No toxicity
CC(C)C[C@H](N)C(=O)N1CCN([C@@H](C)C(=O)N2CCN([C@@H](C)C(N)=O)C(=O)[C@@H]2CC(C)C)C(=O)[C@@H]1CCCNC(=N)N [OOP 3]				reduces HIF1α-inducible promoter activity in vitro in a dose-dependent manner						
CC(C)C[C@@H]1NCCN([C@@H](CC(C)C)C(=O)N2CCN([C@@H](C)C(N)=O)C(=O)[C@@H]2C)C1=O [OOP 1]				reduces HIF1α-inducible promoter activity in vitro in a dose-dependent manner			30	148	449	
C[C@@H]1NCCN([C@@H](C)C(=O)N2CCN([C@@H](C)C(N)=O)C(=O)[C@@H]2C)C1=O [OOP 4]	no inhibitory activity	no inhibitory activity	no inhibitory activity	does not affect HIF1α-inducible promoter activity				91	82	
